Data taken from ChEMBL document CHEMBL4359854, “Repurposing mosloflavone/5,6,7-trimethoxyflavone-resveratrol hybrids: Discovery of novel p38-α MAPK inhibitors as potent interceptors of macrophage-dependent production of proinflammatory mediators” (Eur J Med Chem, 2019).
The source made the active and inactive calls. The calls are words filed in the database; no cut-off is given here.

Columns and labels:
RAW264.7 [1] = assay: Anti-inflammatory activity in mouse RAW264.7 cells assessed as remaining LPS-induced NO production at 40 uM preincubated for 1 hr followed by LPS addition and measured after 24 hrs by Griess reagent-based assay relative to control; assay type: functional
RAW264.7 [2] = assay: Effect on NO production in mouse RAW264.7 cells assessed as inhibition of NO production at 2 to 5 uM incubated for 24 hrs by Griess reagent-based assay; assay type: cell-based; conditions: raw264.7, 24 h
RAW264.7 [3] = assay: Anti-inflammatory activity in mouse RAW264.7 cells assessed as inhibition of LPS-induced NO production at 0.5 uM preincubated for 1 hr followed by LPS addition and measured after 24 hrs by Griess reagent-based assay; assay type: functional, cell-based
[4] = Cytotoxicity against LPS-induced mouse RAW264.7 cells assessed as cell viability at 1 uM incubated for 24 hrs by MTT assay relative to control; assay type: cell-based; conditions: LPS-induced RAW264.7 cells, read-out: Activity
RAW264.7 [5] = assay: Anti-inflammatory activity in mouse RAW264.7 cells assessed as inhibition of LPS-induced NO production at 1 uM preincubated for 1 hr followed by LPS addition and measured after 24 hrs by Griess reagent-based assay relative to control; assay type: functional
RAW264.7 [6] = assay: Anti-inflammatory activity in mouse RAW264.7 cells assessed as inhibition of LPS-induced NO production preincubated for 1 hr followed by LPS addition and measured after 24 hrs by Griess reagent-based assay; assay type: functional, cell-based
RAW264.7 [7] = assay: Anti-inflammatory activity in mouse RAW264.7 cells assessed as inhibition of LPS-induced PGE2 production at 1 uM preincubated for 1 hr followed by LPS addition and measured after 24 hrs by EIA relative to control; assay type: functional
RAW264.7 [8] = assay: Anti-inflammatory activity in mouse RAW264.7 cells assessed as inhibition of LPS-induced PGE2 production preincubated for 1 hr followed by LPS addition and measured after 24 hrs by EIA; assay type: functional, cell-based
RAW264.7 [9] = assay: Anti-inflammatory activity in mouse RAW264.7 cells assessed as inhibition of LPS-induced PGE2 production at 0.2 uM preincubated for 1 hr followed by LPS addition and measured after 24 hrs by EIA; assay type: functional, cell-based
RAW264.7 [10] = assay: Anti-inflammatory activity in mouse RAW264.7 cells assessed as inhibition of LPS-induced IL-6 production at 1 uM preincubated for 1 hr followed by LPS addition and measured after 24 hrs by EIA relative to control; assay type: functional
RAW264.7 [11] = assay: Anti-inflammatory activity in mouse RAW264.7 cells assessed as inhibition of LPS-induced IL-6 production preincubated for 1 hr followed by LPS addition and measured after 24 hrs by EIA; assay type: functional, cell-based
RAW264.7 [12] = assay: Anti-inflammatory activity in mouse RAW264.7 cells assessed as inhibition of LPS-induced IL-6 production at 0.5 uM preincubated for 1 hr followed by LPS addition and measured after 24 hrs by EIA; assay type: functional, cell-based
RAW264.7 [13] = assay: Anti-inflammatory activity in mouse RAW264.7 cells assessed as inhibition of LPS-induced IL-6 production at 1 to 5 uM preincubated for 1 hr followed by LPS addition and measured after 24 hrs by EIA; assay type: functional, cell-based
RAW264.7 [14] = assay: Effect on IL-6 production in mouse RAW264.7 cells assessed as increase in IL-6 production up to 5 uM measured after 1 hr by EIA; assay type: ADME, cell-based; conditions: raw264.7, 1 h
RAW264.7 [15] = assay: Anti-inflammatory activity in mouse RAW264.7 cells assessed as inhibition of LPS-induced TNFalpha production at 1 uM preincubated for 1 hr followed by LPS addition and measured after 24 hrs by EIA relative to control; assay type: functional
RAW264.7 [16] = assay: Anti-inflammatory activity in mouse RAW264.7 cells assessed as inhibition of LPS-induced TNFalpha production preincubated for 1 hr followed by LPS addition and measured after 24 hrs by EIA; assay type: functional, cell-based
RAW264.7 [17] = assay: Anti-inflammatory activity in mouse RAW264.7 cells assessed as inhibition of LPS-induced TNFalpha production at 0.5 uM preincubated for 1 hr followed by LPS addition and measured after 24 hrs by EIA; assay type: functional, cell-based
RAW264.7 [18] = assay: Effect on TNF-alpha production in mouse RAW264.7 cells assessed as increase in TNFalpha production at up to 5 uM measured after 1 hr by EIA; assay type: ADME, cell-based; conditions: raw264.7, 1 h
RAW264.7 [19] = assay: Anti-inflammatory activity in mouse RAW264.7 cells assessed as inhibition of LPS-induced IL-1beta production at 1 uM preincubated for 1 hr followed by LPS addition and measured after 24 hrs by EIA relative to control; assay type: functional
RAW264.7 [20] = assay: Anti-inflammatory activity in mouse RAW264.7 cells assessed as inhibition of LPS-induced PGE2 production at 10 nM preincubated for 1 hr followed by LPS addition and measured after 24 hrs by EIA relative to control; assay type: functional
[21] = molecular target: Mitogen-activated protein kinase 14 (Mus musculus) (UniProt P47811); assay: Inhibition of p38alpha MAPK in LPS-stimulated mouse RAW264.7 cells assessed as reduction in p38alpha MAPK phosphorylation at 4 uM incubated for 60 mins by Western blot analysis; assay type: cell-based
[22] = molecular target: Mitogen-activated protein kinase 14 (Mus musculus) (UniProt P47811); assay: Inhibition of p38alpha MAPK in LPS-stimulated mouse RAW264.7 cells assessed as reduction in p38alpha MAPK phosphorylation incubated for 60 mins by Western blot analysis; assay type: cell-based
[23] = molecular target: Mitogen-activated protein kinase 14 (Mus musculus) (UniProt P47811); assay: Inhibition of p38alpha MAPK in LPS-stimulated mouse RAW264.7 cells assessed as reduction in p38alpha MAPK phosphorylation at 2 uM incubated for 60 mins by Western blot analysis; assay type: cell-based
[24] = molecular target: T1, Mitogen-activated protein kinase 14 (Mus musculus, UniProt P47811); assay: Inhibition of p38alpha MAPK in unstimulated mouse RAW264.7 cells assessed as reduction in p38alpha MAPK phosphorylation at 4 uM incubated for 60 mins by Western blot analysis; assay type: cell-based; conditions: RAW264.7, mouse, 1 h
[25] = molecular target: T1, Mitogen-activated protein kinase 14; assay: Inhibition of p38alpha MAPK in unstimulated mouse RAW264.7 cells assessed as reduction in p38alpha MAPK phosphorylation at 2 uM incubated for 60 mins by Western blot analysis; assay type: cell-based; conditions: raw264.7, 1 h
RAW264.7 [26] = assay: Anti-inflammatory activity in mouse RAW264.7 cells assessed as inhibition of LPS-induced PGE2 production at 40 nM preincubated for 1 hr followed by LPS addition and measured after 24 hrs by EIA; assay type: functional, cell-based
[27] = molecular target: Mitogen-activated protein kinase 14 (Mus musculus) (UniProt P47811); assay: Inhibition of p38alpha MAPK in LPS-stimulated mouse RAW264.7 cells assessed as reduction in p38alpha MAPK phosphorylation at 5 uM incubated for 60 mins by Western blot analysis; assay type: cell-based
[28] = molecular target: Mitogen-activated protein kinase 14 (Mus musculus) (UniProt P47811); assay: Inhibition of p38alpha MAPK in LPS-stimulated mouse RAW264.7 cells assessed as reduction in MK2 phosphorylation at 5 uM by Western blot analysis; assay type: cell-based; conditions: TDE = time-dependent effect
[29] = molecular target: Mitogen-activated protein kinase 14 (Mus musculus) (UniProt P47811); assay: Inhibition of p38alpha MAPK in LPS-stimulated mouse RAW264.7 cells assessed as reduction in MK2 phosphorylation at 5 uM incubated for 120 mins by Western blot analysis; assay type: cell-based

Chain of Mitogen-activated protein kinase 14 (Mus musculus) (P47811 whole entry): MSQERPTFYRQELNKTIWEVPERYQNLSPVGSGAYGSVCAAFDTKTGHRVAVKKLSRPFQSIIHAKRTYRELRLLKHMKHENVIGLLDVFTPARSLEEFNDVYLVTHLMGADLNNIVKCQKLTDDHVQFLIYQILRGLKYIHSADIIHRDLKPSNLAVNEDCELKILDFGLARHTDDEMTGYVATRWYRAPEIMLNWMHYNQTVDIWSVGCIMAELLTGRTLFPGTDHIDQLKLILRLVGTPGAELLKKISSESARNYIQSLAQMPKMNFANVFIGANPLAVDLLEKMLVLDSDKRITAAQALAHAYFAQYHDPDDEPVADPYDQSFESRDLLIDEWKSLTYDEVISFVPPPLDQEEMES
T1 sequence (P47811 whole entry): as above

Row | SMILES | Activity (RAW264.7 [2]) | inhibition (RAW264.7 [3]) | viability at 24 h, 1 µM [4] | inhibition at 1 µM (RAW264.7 [5]) | IC50 (RAW264.7 [6]) | inhibition (RAW264.7 [6]) | inhibition at 1 µM (RAW264.7 [7]) | IC50 (RAW264.7 [8]) | inhibition (RAW264.7 [8]) | inhibition (RAW264.7 [9]) | inhibition at 1 µM (RAW264.7 [10]) | inhibition (RAW264.7 [11]) | inhibition (RAW264.7 [13]) | Activity (RAW264.7 [14]) | inhibition at 1 µM (RAW264.7 [15]) | inhibition (RAW264.7 [16]) | inhibition (RAW264.7 [17]) | Activity (RAW264.7 [18]) | inhibition at 1 µM (RAW264.7 [19]) | inhibition (RAW264.7 [26]) | other results
1 | CC(=N)NCCCC[C@H](N)C(=O)O [L-NIL] | – | – | – | – | – | – | – | – | – | – | – | – | – | – | – | – | – | – | – | – | Activity (RAW264.7 [1]): 29 - 35%
2 | COc1cc(NC(=O)c2cccc(-c3cc(=O)c4c(OC)c(OC)c(OC)cc4o3)c2)cc(OC)c1OC | Non-Toxic | inactive | 113% | 48.3% | 2.75 µM | Dose-dependent effect | 11.2% | 3.4 µM | Dose-dependent effect | inactive | 31.9% | Dose-dependent effect | Active | Non-Toxic | 28.6% | Dose-dependent effect | Active | Non-Toxic | 143% | – | inhibition (RAW264.7 [12]): Active
3 | CS(=O)(=O)Nc1ccc([N+](=O)[O-])cc1OC1CCCCC1 [NS-398] | – | – | – | – | – | – | – | – | – | – | – | – | – | – | – | – | – | – | – | – | inhibition at 0.01 µM (RAW264.7 [20]): 58%
4 | COc1cc(NC(=O)c2cccc(-c3cc(=O)c4c(O)c(OC)c(OC)cc4o3)c2)cc(OC)c1OC | Non-Toxic | Active | 144% | 44.8% | 2.11 µM | Dose-dependent effect | 35.7% | 0.98 µM | Dose-dependent effect | inactive | 53.5% | Dose-dependent effect | Active | Non-Toxic | 29.4% | Dose-dependent effect | Active | Non-Toxic | 41% | – | inhibition [21]: 100%; inhibition [22]: Dose-dependent effect; inhibition [23]: Active; inhibition at 4 µM [24]: 100%; inhibition (INH) [25]: Active
5 | COc1ccccc1C(=O)Nc1ccc(-c2cc(=O)c3c(OC)c(OC)c(OC)cc3o2)cc1 | – | – | 108% | 7.04% | – | – | 78.8% | 0.59 µM | Dose-dependent effect | – | -50% | – | – | – | -51.3% | – | – | – | 14.5% | Active | inhibition [27]: Active; inhibition [28]: Tde
6 | COc1ccccc1C(=O)Nc1cccc(-c2cc(=O)c3c(O)c(OC)c(OC)cc3o2)c1 | – | – | 90.9% | 2.62% | – | – | 82.8% | 0.31 µM | Dose-dependent effect | – | -9.4% | – | – | – | -9.74% | – | – | – | 41.3% | Active | inhibition [29]: Active
